Tests used:
Type in all cases: in vivo
[1] = test system: Barnyardgrass; assay: pre-emergence herbicide test; details: Echinochloa crus-galli, pre-emergence, 0.25 lb/A; read-out: % plant inhibition
Summary of the method: (§1)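 Herbicidal effect was assessed as percent inhibition about 14 days after sowing. A known amount of compound was added to the covering topsoil, and the pans were subirrigated in a greenhouse.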

[2] = test system: Bedstraw Catchweed; assay: pre-emergence herbicide test; details: Galium aparine, pre-emergence, 0.25 lb/A; read-out: % plant inhibition
Summary of the method: as §1

[3] = test system: Birdseye Speedwell; assay: pre-emergence herbicide test; details: pre-emergence, 0.25 lb/A; read-out: % plant inhibition
Summary of the method: as §1

[4] = test system: Blackgrass; assay: pre-emergence herbicide test; details: Alopecurus myosuroides, pre-emergence, 0.25 lb/A; read-out: % plant inhibition
Summary of the method: as §1

[5] = test system: Cocklebur; assay: pre-emergence herbicide test; details: Xanthium strumarium, pre-emergence, 0.25 lb/A; read-out: % plant inhibition
Summary of the method: as §1

[6] = test system: Common Chickweed; assay: pre-emergence herbicide test; details: pre-emergence, 0.25 lb/A; read-out: % plant inhibition
Summary of the method: as §1

[7] = test system: Corn; assay: pre-emergence herbicide test; details: Zea mays, pre-emergence, 0.25 lb/A; read-out: % plant inhibition
Summary of the method: as §1

[8] = test system: Downy Brome; assay: pre-emergence herbicide test; details: Bromus tectorum, pre-emergence, 0.25 lb/A; read-out: % plant inhibition
Summary of the method: as §1

[9] = test system: Giant Foxtail; assay: pre-emergence herbicide test; details: Setaria faberi, pre-emergence, 0.25 lb/A; read-out: % plant inhibition
Summary of the method: as §1

[10] = test system: Green Foxtail; assay: pre-emergence herbicide test; details: Setaria viridis, pre-emergence; 0.25 lb/A; read-out: % plant inhibition
Summary of the method: as §1

[11] = test system: Morning Glory; assay: pre-emergence herbicide test; details: Ipomoea, pre-emergence, 0.25 lb/A; read-out: % plant inhibition
Summary of the method: as §1

[12] = test system: Rape; assay: pre-emergence herbicide test; details: pre-emergence, 0.25 lb/A; read-out: % plant inhibition
Summary of the method: as §1

[13] = test system: Seedling Johnsongrass; assay: pre-emergence herbicide test; details: Sorghum halepense, pre-emergence, 0.25 lb/A; read-out: % plant inhibition
Summary of the method: as §1

[14] = test system: Soybean; assay: pre-emergence herbicide test; details: Glycine max, pre-emergence, 0.25 lb/A; read-out: % plant inhibition
Summary of the method: as §1

[15] = test system: Velvetleaf; assay: pre-emergence herbicide test; details: Abutilon theophrasti, pre-emergence, 0.25 lb/A; read-out: % plant inhibition
Summary of the method: as §1

[16] = test system: Wheat; assay: pre-emergence herbicide test; details: Triticum aestivum, pre-emergence, 0.25 lb/A; read-out: % plant inhibition
Summary of the method: as §1

[17] = test system: Wild Oats; assay: pre-emergence herbicide test; details: Avena fatua, pre-emergence, 0.25 lb/A; read-out: % plant inhibition
Summary of the method: as §1

[18] = test system: Barnyardgrass; assay: post-emergence herbicide test; details: Echinochloa crus-galli, post-emergence, 0.25 lb/A; read-out: % plant inhibition
Summary of the method: (§2)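 Percent inhibition of each species scored after post-emergence spraying of two- to three-week-old greenhouse plants. Spray solution carried about 0.4% by volume emulsifier, delivered by atomizer at 170.3 kPa (10 psig) and 1870 L/Ha total volume.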

[19] = test system: Bedstraw Catchweed; assay: post-emergence herbicide test; details: Galium aparine, post-emergence, 0.25 lb/A; read-out: % plant inhibition
Summary of the method: as §2

[20] = test system: Birdseye Speedwell; assay: post-emergence herbicide test; details: post-emergence, 0.25 lb/A; read-out: % plant inhibition
Summary of the method: as §2

[21] = test system: Blackgrass; assay: post-emergence herbicide test; details: Alopecurus myosuroides, post-emergence, 0.25 lb/A; read-out: % plant inhibition
Summary of the method: as §2

[22] = test system: Cocklebur; assay: post-emergence herbicide test; details: Xanthium strumarium, post-emergence, 0.25 lb/A; read-out: % plant inhibition
Summary of the method: as §2

[23] = test system: Common Chickweed; assay: post-emergence herbicide test; details: post-emergence, 0.25 lb/A; read-out: % plant inhibition
Summary of the method: as §2

[24] = test system: Corn; assay: post-emergence herbicide test; details: Zea mays, post-emergence, 0.25 lb/A; read-out: % plant inhibition
Summary of the method: as §2

[25] = test system: Downy Brome; assay: post-emergence herbicide test; details: Bromus tectorum, post-emergence, 0.25 lb/A; read-out: % plant inhibition
Summary of the method: as §2

[26] = test system: Giant Foxtail; assay: post-emergence herbicide test; details: Setaria faberi, post-emergence, 0.25 lb/A; read-out: % plant inhibition
Summary of the method: as §2

[27] = test system: Green Foxtail; assay: post-emergence herbicide test; details: Setaria viridis, post-emergence, 0.25 lb/A; read-out: % plant inhibition
Summary of the method: as §2

[28] = test system: Morning Glory; assay: post-emergence herbicide test; details: Ipomoea, post-emergence, 0.25 lb/A; read-out: % plant inhibition
Summary of the method: as §2

[29] = test system: Rape; assay: post-emergence herbicide test; details: post-emergence, 0.25 lb/A; read-out: % plant inhibition
Summary of the method: as §2

[30] = test system: Seedling Johnsongrass; assay: post-emergence herbicide test; details: Sorghum halepense, post-emergence, 0.25 lb/A; read-out: % plant inhibition
Summary of the method: as §2

[31] = test system: Soybean; assay: post-emergence herbicide test; details: Glycine max, post-emergence, 0.25 lb/A; read-out: % plant inhibition
Summary of the method: as §2

[32] = test system: Velvetleaf; assay: post-emergence herbicide test; details: Abutilon theophrasti, post-emergence, 0.25 lb/A; read-out: % plant inhibition
Summary of the method: as §2

[33] = test system: Wheat; assay: post-emergence herbicide test; details: Triticum aestivum, post-emergence, 0.25 lb/A; read-out: % plant inhibition
Summary of the method: as §2

[34] = test system: Wild Oats; assay: post-emergence herbicide test; details: Avena fatua, post-emergence, 0.25 lb/A; read-out: % plant inhibition
Summary of the method: as §2

| Structure (SMILES) | inhibition at 280.212 g/ha [1] [%] | inhibition at 280.212 g/ha [2] [%] | inhibition at 280.212 g/ha [3] [%] | inhibition at 280.212 g/ha [4] [%] | inhibition at 280.212 g/ha [5] [%] | inhibition at 280.212 g/ha [6] [%] | inhibition at 280.212 g/ha [7] [%] | inhibition at 280.212 g/ha [8] [%] | inhibition at 280.212 g/ha [9] [%] | inhibition at 280.212 g/ha [10] [%] | inhibition at 280.212 g/ha [11] [%] | inhibition at 280.212 g/ha [12] [%] | inhibition at 280.212 g/ha [13] [%] | inhibition at 280.212 g/ha [14] [%] | inhibition at 280.212 g/ha [15] [%] | inhibition at 280.212 g/ha [16] [%] | inhibition at 280.212 g/ha [17] [%] | inhibition at 280.212 g/ha [18] [%] | inhibition at 280.212 g/ha [19] [%] | inhibition at 280.212 g/ha [20] [%] | also measured |
| --- | --- | --- | --- | --- | --- | --- | --- | --- | --- | --- | --- | --- | --- | --- | --- | --- | --- | --- | --- | --- | --- |
| CCOC(=O)COC(=O)c1cc(-c2nn(C)c(C(F)(F)F)c2C)c(F)cc1Cl [Compound 17] | 0 | 100 | 100 | 20 | 10 | 100 | 0 | 30 | 40 | 35 | 50 | 90 | 5 | 5 | 50 | 0 | 15 | 70 | 95 | 98 | inhibition at 280.212 g/ha [21]: 15%; inhibition at 280.212 g/ha [22]: 95%; inhibition at 280.212 g/ha [23]: 90%; inhibition at 280.212 g/ha [24]: 10%; inhibition at 280.212 g/ha [25]: 30%; inhibition at 280.212 g/ha [26]: 45%; inhibition at 280.212 g/ha [27]: 20%; inhibition at 280.212 g/ha [28]: 90%; inhibition at 280.212 g/ha [29]: 20%; inhibition at 280.212 g/ha [30]: 65%; inhibition at 280.212 g/ha [31]: 30%; inhibition at 280.212 g/ha [32]: 99%; inhibition at 280.212 g/ha [33]: 15%; inhibition at 280.212 g/ha [34]: 20% |
| Cc1c(-c2cc(CS(C)(=O)=O)c(Cl)cc2F)nn(C)c1C(F)(F)F [Compound 28] | 15 | 40 | 70 | 30 | 10 | 25 | 3 | 0 | 30 | 90 | 0 | 5 | 50 | 0 | 45 | 0 | 0 | 10 | 60 | 85 | inhibition at 280.212 g/ha [21]: 10%; inhibition at 280.212 g/ha [22]: 40%; inhibition at 280.212 g/ha [23]: 25%; inhibition at 280.212 g/ha [24]: 40%; inhibition at 280.212 g/ha [25]: 20%; inhibition at 280.212 g/ha [26]: 25%; inhibition at 280.212 g/ha [27]: 50%; inhibition at 280.212 g/ha [28]: 65%; inhibition at 280.212 g/ha [29]: 20%; inhibition at 280.212 g/ha [30]: 20%; inhibition at 280.212 g/ha [31]: 20%; inhibition at 280.212 g/ha [32]: 60%; inhibition at 280.212 g/ha [33]: 8%; inhibition at 280.212 g/ha [34]: 15% |
